From patent US20230220346A1, “BIOLOGICALLY SYNTHESIZED HYDROXYAPATITE FOR BONE REGENERATION AND TISSUE ENGINEERING” (BIOVENTURES, LLC, priority 2019, published 2023)

Experiments:
[1] = system: MG-63 and Saos-2 cell lines; assay: Alizarin Red S biomineralization assay: phosphate source comparison, titration, ascorbic acid (FIG. 1A, 1C, 1E-G); type: cell-based, human; conditions: for dose dependence of biomineralization (titration assays): FIG. 1E-G; for biomineralization with the substance as organic phosphate source: substituted for βGP, 2 mM, with ALP, FIG. 1B,C
Experimental: (§1) Biomineralization assays and Alizarin Red S staining: All human and mouse cell lines and human peripheral blood mononuclear cells (MNCs) were maintained in MEMα/10% FBS with penicillin/streptomycin and glutamine in a 37° C. humidified incubator with 5% CO2. […] The medium was replaced after 4 days. Alizarin Red S staining was performed at room temperature by removing the culture medium, washing the cells twice with 1×PBS (pH 7.4), fixing the cells in 10% neutral buffered formalin (Richard-Allan Scientific, Kalamazoo, Mich., USA) for 30 min, rinsing twice with Milli-Q water, staining with Alizarin Red S for 30 min, and destaining twice in Milli-Q water. A ZEISS inverted fluorescence/brightfield microscope equipped with an Infinity 3 digital camera and software system was used for imaging.

[2] = system: Saos-2 cell line; assay: Alizarin Red S (ARS) biomineralization assay in Saos-2; type: cell-based, human; conditions: for biomineralization (Alizarin Red S staining): MEMα/10% FBS plus the supplement only, no ALP added, 7 days
Experimental: as §1

[3] = system: MG-63 cell line; assay: Alizarin Red S (ARS) biomineralization assay in MG-63; type: cell-based, human; conditions: MEMα/10% FBS plus the supplement only, no ALP added, 7 days
Experimental: as §1

[4] = system: human blood mononuclear cells (MNCs); assay: Alizarin Red S biomineralization assay in human blood mononuclear cells; type: cell-based; conditions: MEMα/10% FBS with αGP alone or CIP alone (the other missing), 7 days
Experimental: as §1
Coating cell culture plate with Collagen Type I, rat tail for mineralization assays: To coat a 48-well plate with Collagen Type I at 5 μg/cm^2, the stock solution was diluted to 25 μg/mL in 17.5 mM of acetic acid and aliquoted […] into each well. After incubating at room temperature for one hour, the Collagen Type I solution was removed. Each well was rinsed with 1×PBS (pH 7.4) and air-dried at room temperature. Human blood MNCs were suspended in the conditioned media and distributed into each well (1×10^5 cell/well) prior to a 7-day incubation. […]

With `[Ca+2]` [Ca^2+, calcium ions] the “dose dependence of biomineralization (titration assays)” value [1] was “depended on the doses”.
With `O=P(O)(O)OCC(O)CO` (stereo not drawn) [NSC 9231, glycerophosphoric acid] the “biomineralization with the substance as organic phosphate source” value [1] was “did not occur”.
`O=C1O[C@H]([C@@H](O)CO)C(O)=C1O` [Vit. C, Ascorbic acid] was tested, and the “biomineralization (Alizarin Red S staining)” value [2] was “No mineralization”, the “biomineralization (Alizarin Red S staining)” value [3] was “No mineralization” and the “need of ascorbic acid for biomineralization” value ([1]; MEMα with or without ascorbic acid, FIG. 1A and FIG. 8) was “unnecessary or even deleterious”.
For `NCCC(O)(P(=O)(O)O)P(=O)(O)O` [pamidronate], the “biomineralization with the substance as organic phosphate source” value [1] was “did not occur”.
For `O.O=P([O-])([O-])OCC(O)CO.[Na+].[Na+]` (stereo not drawn) [αGP, Disodium α-glycerophosphate hydrate], the “incubation time until biomineralization occurred at cytoplasmic membrane and cytosol” value ([2]; MEMα/10% FBS with 2 mM αGP) was no more than 24 h, the “biomineralization (Alizarin Red S staining)” value [4] was “did not occur” and the “dose dependence of biomineralization (titration assays)” value [1] was “depended on the doses”. The “relative efficiency of phosphoester salts in eliciting biomineralization” value ([1]; compared to βGP and PEP, FIG. 1C) was “most efficient”.
`O=P([O-])([O-])OC(CO)CO.[Na+].[Na+]` [βGP, disodium β-glycerophosphate] was tested, and the “biomineralization (Alizarin Red S staining)” value [2] was “could mineralize” and the “biomineralization (Alizarin Red S staining)” value [3] was “could not”.
